Measurements: patent publication US12172990B2 (Constellation Pharmaceuticals, Inc., priority 2018, dated 2024)

Assays:
[1] = biological target: human TREX2 (residues M44-A279) (Homo sapiens (Human), UniProt Q9BQ50); test: TREX2 Biochemical Assay (fluorescence assay measuring degradation of dsDNA substrate); settings: 2.5 nM TREX2, 60 nM dsDNA substrate, 25 minutes at room temperature
Procedure: Degradation of the dsDNA liberates free fluorophore to produce a fluorescent signal. Specifically, 7.5 μL of N-terminally His-Tev tagged human TREX2 (residues M44-A279, expressed in E. coli and purified in house) in reaction buffer (50 mM Tris (pH 7.4), 150 mM NaCl, 2 mM DTT, 0.1 mg/mL BSA, 0.01% (v/v) Tween-20 and 100 mM MgCl2) was added to a 384-well Black ProxiPlate Plus (Perkin Elmer) which already contained compound (150 nL) at varying concentrations as a 10 point dose-response in DMSO. To this was added 7.5 μL of dsDNA substrate (Strand A: 5′ TEX615/GCT AGG CAG 3′; Strand B: 5′ CTG CCT AGC/IAbRQSp (IDT)) in reaction buffer. Final concentrations were 2.5 nM TREX2, 60 nM dsDNA substrate in reaction buffer with 1.0% DMSO (v/v). After 25 minutes at room temperature, reactions were quenched by the addition of 5 μL of stop buffer (same as reaction buffer plus 200 mM EDTA). Final concentrations in the quenched reaction mixture were […] TREX2, 45 nM DNA and 50 mM EDTA in a volume of 20 μL. After a 5-minute incubation at room temperature, plates were read in a laser sourced Envision (Perkin-Elmer), measuring fluorescence at 615 nm following excitation w/570 nm light. IC50 values were calculated by comparing the measured fluorescence at 615 nm ratio relative to control wells pre-quenched w/stop buffer (100% inhibition) and no inhibitor (0% inhibition) controls as using non-linear least square four parameter fits and either Genedata or GraphPad Prism (GraphPad Software, Inc.).

[2] = biological target: full length human TREX1 (Homo sapiens (Human), UniProt Q9NSU2); test: TREX1 Biochemical Assay (fluorescence assay measuring degradation of dsDNA substrate); settings: 150 pM TREX1, 60 nM dsDNA substrate, 25 minutes at room temperature
full length human TREX1, sequence (Q9NSU2 whole entry): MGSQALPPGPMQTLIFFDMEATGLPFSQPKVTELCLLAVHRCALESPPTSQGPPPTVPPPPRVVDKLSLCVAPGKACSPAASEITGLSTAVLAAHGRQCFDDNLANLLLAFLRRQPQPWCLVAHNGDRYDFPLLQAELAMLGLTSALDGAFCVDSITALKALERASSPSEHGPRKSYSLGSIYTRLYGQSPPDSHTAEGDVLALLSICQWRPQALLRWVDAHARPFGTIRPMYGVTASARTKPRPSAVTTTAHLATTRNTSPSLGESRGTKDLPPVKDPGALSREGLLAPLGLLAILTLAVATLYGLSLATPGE
Procedure: Degradation of the dsDNA liberates free fluorophore to produce a fluorescent signal. Specifically, 7.5 μL of N-terminally His-Tev tagged full length human TREX1 (expressed in E. coli and purified in house) in reaction buffer (50 mM Tris (pH 7.4), 150 mM NaCl, 2 mM DTT, 0.1 mg/mL BSA, 0.01% (v/v) Tween-20 and 100 mM MgCl2 were added to a 384-well Black ProxiPlate Plus (Perkin Elmer) which already contained compound (150 nL) at varying concentrations as a 10 point dose-response in DMSO. To this was added 7.5 μL of dsDNA substrate (Strand A: 5′ TEX615/GCT AGG CAG 3′; Strand B: 5′ CTG CCT AGC/IAbRQSp (Integrated DNA Technologies)) in reaction buffer. Final concentrations were 150 pM TREX1, 60 nM dsDNA substrate in reaction buffer with 1.0% DMSO (v/v). After 25 minutes at room temperature, reactions were quenched by the addition of 5 μL of stop buffer (same as reaction buffer plus 200 mM EDTA). Final concentrations in the quenched reaction were 112.5 pM TREX1, 45 nM DNA and 50 mM EDTA in a volume of 20 μL. After a 5-minute incubation at room temperature, plates were read in a laser sourced Envision (Perkin-Elmer), measuring fluorescence at 615 nm following excitation w/570 nm light. IC50 values were calculated by comparing the measured fluorescence at 615 nm ratio relative to control wells pre-quenched w/stop buffer (100% inhibition) and no inhibitor (0% inhibition) controls as using non-linear least square four parameter fits and either Genedata or GraphPad Prism (GraphPad Software, Inc.).

human TREX2 (residues M44-A279), sequence (Q9BQ50 whole entry, the tested form may be a part): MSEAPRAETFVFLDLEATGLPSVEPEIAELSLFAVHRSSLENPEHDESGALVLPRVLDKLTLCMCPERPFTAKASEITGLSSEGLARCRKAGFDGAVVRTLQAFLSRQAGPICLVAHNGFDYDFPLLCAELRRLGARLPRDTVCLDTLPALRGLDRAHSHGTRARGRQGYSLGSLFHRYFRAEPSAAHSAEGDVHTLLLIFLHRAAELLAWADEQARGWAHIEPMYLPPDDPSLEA

Compound	IC50 [1]	IC50 [2]
Cc1cc(Br)cc(-c2nc(C(=O)Nc3cnoc3)c(O)c(=O)n2C)c1 [Example 1, 2-(3-bromo-5-methylphenyl)-5-hydroxy-N-(isoxazol-4-yl)-1-methyl-6-oxo-1,6-dihydropyrimidine-4-carboxamide]	1000 to 10000 nM	< 100 nM
Cn1c(C2CCC2)nc(C(=O)Nc2cnoc2)c(O)c1=O [Example 2, 2-cyclobutyl-5-hydroxy-N-(isoxazol-4-yl)-1-methyl-6-oxo-1,6-dihydropyrimidine-4-carboxamide]	10000 to 100000 nM	100 to 1000 nM
Cn1c(C2CC2)nc(C(=O)Nc2cnoc2)c(O)c1=O [Example 3, 2-cyclopropyl-5-hydroxy-N-(isoxazol-4-yl)-1-methyl-6-oxo-1,6-dihydropyrimidine-4-carboxamide]	10000 to 100000 nM	100 to 1000 nM
Cc1ccc(Br)cc1-c1nc(C(=O)Nc2cnoc2)c(O)c(=O)n1C [Example 4, 2-(5-bromo-2-methylphenyl)-5-hydroxy-N-(isoxazol-4-yl)-1-methyl-6-oxo-1,6-dihydropyrimidine-4-carboxamide]	1000 to 10000 nM	100 to 1000 nM
Cc1c(Br)cccc1-c1nc(C(=O)Nc2cnoc2)c(O)c(=O)n1C [Example 5, 2-(3-bromo-2-methylphenyl)-5-hydroxy-N-(isoxazol-4-yl)-1-methyl-6-oxo-1,6-dihydropyrimidine-4-carboxamide]	1000 to 10000 nM	< 100 nM
Cn1c(Cc2ccccc2)nc(C(=O)Nc2cnoc2)c(O)c1=O [Example 6, 2-benzyl-5-hydroxy-N-(isoxazol-4-yl)-1-methyl-6-oxo-1,6-dihydropyrimidine-4-carboxamide]	10000 to 100000 nM	100 to 1000 nM
Cn1c(C2(NC(=O)OCc3ccccc3)CC2)nc(C(=O)Nc2cnoc2)c(O)c1=O [Example 7, benzyl (1-(5-hydroxy-4-(isoxazol-4-ylcarbamoyl)-1-methyl-6-oxo-1,6-dihydropyrimidin-2-yl)cyclopropyl)carbamate]	10000 to 100000 nM	100 to 1000 nM
Cn1c(-c2ccccc2)nc(C(=O)Nc2cnoc2)c(O)c1=O [Example 8, 5-hydroxy-N-(isoxazol-4-yl)-1-methyl-6-oxo-2-phenyl-1,6-dihydropyrimidine-4-carboxamide]	10000 to 100000 nM	100 to 1000 nM
Cn1c(-c2ccccc2Br)nc(C(=O)Nc2cnoc2)c(O)c1=O [Example 9, 2-(2-bromophenyl)-5-hydroxy-N-(isoxazol-4-yl)-1-methyl-6-oxo-1,6-dihydropyrimidine-4-carboxamide]	10000 to 100000 nM	100 to 1000 nM
Cn1c(-c2cccc(Br)c2)nc(C(=O)Nc2cnoc2)c(O)c1=O [Example 10, 2-(3-bromophenyl)-5-hydroxy-N-(isoxazol-4-yl)-1-methyl-6-oxo-1,6-dihydropyrimidine-4-carboxamide]	1000 to 10000 nM	< 100 nM
Cn1c(-c2ccc(Br)cc2)nc(C(=O)Nc2cnoc2)c(O)c1=O [Example 11, 2-(4-bromophenyl)-5-hydroxy-N-(isoxazol-4-yl)-1-methyl-6-oxo-1,6-dihydropyrimidine-4-carboxamide]	10000 to 100000 nM	100 to 1000 nM
Cn1c(C2CCN(C(=O)OC(C)(C)C)CC2)nc(C(=O)Nc2cnoc2)c(O)c1=O [Example 12, tert-butyl 4-(5-hydroxy-4-(isoxazol-4-ylcarbamoyl)-1-methyl-6-oxo-1,6-dihydropyrimidin-2-yl)piperidine-1-carboxylate]	10000 to 100000 nM	1000 to 10000 nM
Cn1c(C2CCCN(C(=O)OC(C)(C)C)C2)nc(C(=O)Nc2cnoc2)c(O)c1=O (centres unmarked) [Example 13, tert-butyl 3-(5-hydroxy-4-(isoxazol-4-ylcarbamoyl)-1-methyl-6-oxo-1,6-dihydropyrimidin-2-yl)piperidine-1-carboxylate]	10000 to 100000 nM	100 to 1000 nM
Cn1c(C2CCCCN2C(=O)OC(C)(C)C)nc(C(=O)Nc2cnoc2)c(O)c1=O (centres unmarked) [Example 14, tert-butyl 2-(5-hydroxy-4-(isoxazol-4-ylcarbamoyl)-1-methyl-6-oxo-1,6-dihydropyrimidin-2-yl)piperidine-1-carboxylate]	1000 to 10000 nM	100 to 1000 nM
Cn1c(-c2cccc(Br)c2OCCO)nc(C(=O)Nc2cnoc2)c(O)c1=O [Example 15, 2-(3-bromo-2-(2-hydroxyethoxy)phenyl)-5-hydroxy-N-(isoxazol-4-yl)-1-methyl-6-oxo-1,6-dihydropyrimidine-4-carboxamide]	< 1000 nM	< 100 nM
CC(C)(C)OC(=O)N1CCCC(c2nc(C(=O)Nc3cnoc3)c(O)c(=O)[nH]2)C1 (centres unmarked) [Example 16, tert-butyl 3-(5-hydroxy-4-(isoxazol-4-ylcarbamoyl)-6-oxo-1,6-dihydropyrimidin-2-yl)piperidine-1-carboxylate]	10000 to 100000 nM	100 to 1000 nM
Cn1c(CC2CCN(C(=O)OC(C)(C)C)CC2)nc(C(=O)Nc2cnoc2)c(O)c1=O [Example 17, tert-butyl 4-((5-hydroxy-4-(isoxazol-4-ylcarbamoyl)-1-methyl-6-oxo-1,6-dihydropyrimidin-2-yl)methyl)piperidine-1-carboxylate]	10000 to 100000 nM	1000 to 10000 nM
Cn1c(CC2CCCN(C(=O)OC(C)(C)C)C2)nc(C(=O)Nc2cnoc2)c(O)c1=O (centres unmarked) [Example 18, tert-butyl 3-((5-hydroxy-4-(isoxazol-4-ylcarbamoyl)-1-methyl-6-oxo-1,6-dihydropyrimidin-2-yl)methyl)piperidine-1-carboxylate]	10000 to 100000 nM	100 to 1000 nM
Cn1c(C2CN(C(=O)OC(C)(C)C)C2)nc(C(=O)Nc2cnoc2)c(O)c1=O [Example 19, tert-butyl 3-(5-hydroxy-4-(isoxazol-4-ylcarbamoyl)-1-methyl-6-oxo-1,6-dihydropyrimidin-2-yl)azetidine-1-carboxylate]	> 100000 nM	1000 to 10000 nM
Cn1c(C2(c3ccccc3)CC2)nc(C(=O)Nc2cnoc2)c(O)c1=O [Example 20, 5-hydroxy-N-(isoxazol-4-yl)-1-methyl-6-oxo-2-(1-phenylcyclopropyl)-1,6-dihydropyrimidine-4-carboxamide]	10000 to 100000 nM	100 to 1000 nM
Cn1c(-c2ccncc2)nc(C(=O)Nc2cnoc2)c(O)c1=O [Example 21, 5-hydroxy-N-(isoxazol-4-yl)-1-methyl-6-oxo-2-(pyridin-4-yl)-1,6-dihydropyrimidine-4-carboxamide]	> 100000 nM	1000 to 10000 nM
Cn1c(C2CCN2C(=O)OC(C)(C)C)nc(C(=O)Nc2cnoc2)c(O)c1=O (centres unmarked) [Example 22, tert-butyl 2-(5-hydroxy-4-(isoxazol-4-ylcarbamoyl)-1-methyl-6-oxo-1,6-dihydropyrimidin-2-yl)azetidine-1-carboxylate]	10000 to 100000 nM	1000 to 10000 nM
Cn1c(C(NC(=O)OCc2ccccc2)c2ccccc2)nc(C(=O)Nc2cnoc2)c(O)c1=O (centres unmarked) [Example 23, benzyl ((5-hydroxy-4-(isoxazol-4-ylcarbamoyl)-1-methyl-6-oxo-1,6-dihydropyrimidin-2-yl)(phenyl)methyl)carbamate]	1000 to 10000 nM	100 to 1000 nM
Cn1c(C(NC(=O)OCc2ccccc2)c2ccc(Br)cc2)nc(C(=O)Nc2cnoc2)c(O)c1=O (centres unmarked) [Example 24, benzyl ((4-bromophenyl)(5-hydroxy-4-(isoxazol-4-ylcarbamoyl)-1-methyl-6-oxo-1,6-dihydropyrimidin-2-yl)methyl)carbamate]	> 100000 nM	100 to 1000 nM
Cc1cc(C)cc(-c2nc(C(=O)Nc3cnoc3)c(O)c(=O)n2C)c1 [Example 25, 2-(3,5-dimethylphenyl)-5-hydroxy-N-(isoxazol-4-yl)-1-methyl-6-oxo-1,6-dihydropyrimidine-4-carboxamide]	1000 to 10000 nM	100 to 1000 nM
